# From patent US9849130B2 (KamTek, Inc., priority 2014, dated 2017)
# Entries after “also recorded” stand apart in the source; their conditions may differ. Where two headings read alike, the source gives them in different places.
# Columns and labels:
# CD strains = assay: In vitro activity of CFM + additional antimicrobial agent against CD (MIC alone/combination, FIC, ΣFIC); type: cell-based, Clostridium difficile; details: CD strain NR32888
# Escherichia coli strains = assay: MIC by microdilution in Mueller-Hinton broth against Escherichia coli strains; type: cell-based; details: for MIC: Escherichia coli, Mueller-Hinton broth, read-out: MIC
# Enterococcus faecalis = assay: MIC by microdilution in Mueller-Hinton broth against Enterococcus faecalis strains; type: cell-based; details: Enterococcus faecalis
# Enterococci faecium = assay: MIC by microdilution in Mueller-Hinton broth against Enterococci faecium strains; type: cell-based, Enterococcus faecium; details: Enterococcus faecium, Mueller-Hinton broth, read-out: MIC
# Bacteroides Strains = assay: MIC by microdilution in Brucella broth against Bacteroides strains; type: cell-based, Bacteroides spp.
# Fusobacterium = assay: MIC by microdilution in Brucella broth against Fusobacterium; type: cell-based, Fusobacterium spp.; details: Brucella broth, read-out: MIC
# Bifidobacterium strains = assay: MIC by microdilution in BHI broth against Bifidobacterium strains; type: cell-based, Bifidobacterium spp.; details: BHI broth, read-out: MIC
# Lactobacillus strains = assay: MIC against Lactobacillus strains; type: cell-based, Lactobacillus spp.; details: broth microdilution, BHI with 0.02% Tween 80, pH 6.0, read-out: MIC
# [1] = tested on: Lachnospiraceae and related bacterial strains; assay: MIC against Lachnospiraceae and related bacterial strains; type: cell-based, Lachnospiraceae spp.
compound,measurement,setting,value
"CC(C)N=c1cc2n(-c3ccc(Cl)cc3)c3ccccc3nc-2cc1Nc1ccc(Cl)cc1 [CFM, 3-(p-chloroanilino)-10-(p-chlorophenyl)-2,10-dihydro-2-iso-propyliminophenazine]",FIC,"CD strains; Test 19, CFM + MET",0.062
same,MIC combination,"CD strains; Test 19, CFM + MET",0.015 µg/mL
same,ΣFIC,"CD strains; Test 19, sum for combination CFM + MET",0.125
same,FIC,"CD strains; Test 20, CFM + VAN",0.25
same,MIC combination,"CD strains; Test 20, CFM + VAN",0.062 µg/mL
same,ΣFIC,"CD strains; Test 20, sum for combination CFM + VAN",0.75
same,FIC,"CD strains; Test 21, CFM + MET",0.031
same,MIC combination,"CD strains; Test 21, CFM + MET",0.0078 µg/mL
same,ΣFIC,"CD strains; Test 21, sum for combination CFM + MET",0.28
same,activity against E. coli (in words),Escherichia coli strains,relatively inactive; also recorded: not active
same,MIC,Escherichia coli strains; Escherichia coli strain NR 6,> 32 µg/mL
same,MIC,Escherichia coli strains; Escherichia coli strain NR 8,> 32 µg/mL
same,MIC,Escherichia coli strains; Escherichia coli strain NR 96,> 32 µg/mL
same,MIC,Escherichia coli strains; Escherichia coli strain NR 104,> 32 µg/mL
same,MIC,Escherichia coli strains; Escherichia coli strain NR 17626,> 32 µg/mL
same,MIC,Escherichia coli strains; Escherichia coli strain NR 17627,> 32 µg/mL
same,MIC,Escherichia coli strains; Escherichia coli strain NR 17633,> 32 µg/mL
same,MIC,Escherichia coli strains; Escherichia coli strain NR 17647,> 32 µg/mL
same,MIC,Escherichia coli strains; Escherichia coli strain NR 17650,> 32 µg/mL
same,MIC,Escherichia coli strains; Escherichia coli strain NR 17661,> 32 µg/mL
same,MIC,"Enterococcus faecalis; E. faecalis NR 31884, read-out: MIC",32 µg/mL
same,MIC,"Enterococcus faecalis; E. faecalis NR 31885, read-out: MIC",32 µg/mL
same,MIC,"Enterococcus faecalis; E. faecalis NR 31886, read-out: MIC",32 µg/mL
same,MIC,"Enterococcus faecalis; E. faecalis NR 31887, read-out: MIC",16 µg/mL
same,MIC,"Enterococcus faecalis; E. faecalis NR 31888, read-out: MIC",32 µg/mL
same,MIC,Enterococci faecium; E. faecium NR 31903,4 µg/mL
same,MIC,Enterococci faecium; E. faecium NR 31909,2 µg/mL
same,MIC,Enterococci faecium; E. faecium NR 31912,2 µg/mL
same,MIC,Enterococci faecium; E. faecium NR 31915,16 µg/mL
same,MIC,Enterococci faecium; E. faecium NR 31916,8 µg/mL
same,MIC,"Bacteroides Strains; B. caccae HM728, read-out: MIC",1 µg/mL
same,MIC,"Bacteroides Strains; B. eggerthii HM210, read-out: MIC",2 µg/mL
same,MIC,"Bacteroides Strains; B. fragilis HM709, read-out: MIC",4 µg/mL
same,MIC,"Bacteroides Strains; B. fragilis HM710, read-out: MIC",2 µg/mL
same,MIC,"Bacteroides Strains; B. fragilis HM714, read-out: MIC",2 µg/mL
same,MIC,"Bacteroides Strains; B. ovatus HM222, read-out: MIC",0.25 µg/mL
same,MIC,"Bacteroides Strains; B. stercoris HM1036, read-out: MIC",0.5 µg/mL
same,MIC,"Bacteroides Strains; Bacteroides, B. spp. HM18",4 µg/mL
same,MIC,"Bacteroides Strains; Bacteroides, B. spp. HM19",1 µg/mL
same,MIC,"Bacteroides Strains; Bacteroides, B. spp. HM23, read-out: MIC",2 µg/mL
same,MIC,"Bacteroides Strains; Bacteroides, B. spp. HM27",1 µg/mL
same,MIC,"Bacteroides Strains; Bacteroides, B. spp. HM58",1 µg/mL
same,MIC,Fusobacterium; F. nucleatum HM-75,> 32 µg/mL
same,MIC,Fusobacterium; F. nucleatum HM-260,> 32 µg/mL
same,MIC,Fusobacterium; F. nucleatum HM-992,> 32 µg/mL
same,MIC,Fusobacterium; F. nucleatum HM-993,2 µg/mL
same,MIC,Fusobacterium; F. nucleatum HM-994,32 µg/mL
same,MIC,Fusobacterium; F. nucleatum HM-995,> 32 µg/mL
same,MIC,Fusobacterium; F. nucleatum HM-996,32 µg/mL
same,MIC,Fusobacterium; F. nucleatum HM-997,> 32 µg/mL
same,MIC,"Fusobacterium; Fusobacterium, Fusobacterium sp. HM 42",> 32 µg/mL
same,MIC,"Fusobacterium; Fusobacterium, Fusobacterium sp. HM 57",> 32 µg/mL
same,MIC,"Fusobacterium; Fusobacterium, Fusobacterium sp. HM-556",16 µg/mL
same,MIC,"Fusobacterium; Fusobacterium, Fusobacterium sp. HM-758",> 32 µg/mL
same,MIC,"Fusobacterium; Fusobacterium, Fusobacterium sp. HM-871",32 µg/mL
same,MIC,"Fusobacterium; Fusobacterium, Fusobacterium sp. HM-874",> 32 µg/mL
same,MIC,"Fusobacterium; Fusobacterium, Fusobacterium sp. HM-875",32 µg/mL
same,MIC,Bifidobacterium strains; Bifidobacterium adolescentis HM-633,1 µg/mL
same,MIC,Bifidobacterium strains; Bifidobacterium breve HM-411,2 µg/mL
same,MIC,Bifidobacterium strains; Bifidobacterium breve HM-412,2 µg/mL
same,MIC,Bifidobacterium strains; Bifidobacterium breve HM-856,4 µg/mL
same,MIC,Bifidobacterium strains; Bifidobacterium breve HM-1120,> 32 µg/mL
same,MIC,Bifidobacterium strains; Bifidobacterium longum HM-845,1 µg/mL
same,MIC,Bifidobacterium strains; Bifidobacterium longum HM-846,2 µg/mL
same,MIC,Bifidobacterium strains; Bifidobacterium longum HM-847,1 µg/mL
same,MIC,"Bifidobacterium strains; Bifidobacterium, Bifidobacterium sp. HM-30",0.5 µg/mL
same,MIC,"Bifidobacterium strains; Bifidobacterium, Bifidobacterium sp. HM-868",2 µg/mL
same,MIC,"Lactobacillus strains; Lactobacillus, pH 6, Lactobacillus jhonsonii HM-643",> 32 µg/mL
same,MIC,"Lactobacillus strains; Lactobacillus, pH 6, Lactobacillus sp. HM-228",1 µg/mL
same,MIC,"Lactobacillus strains; Lactobacillus, pH 6, Lactobacillus sp. HM-478",> 32 µg/mL
same,MIC,"Lactobacillus strains; pH 6, Lactobacillus crispatus HM-637",4 µg/mL
same,MIC,"Lactobacillus strains; pH 6, Lactobacillus gasseri HM-104",> 32 µg/mL
same,MIC,"Lactobacillus strains; pH 6, Lactobacillus iners HM-126",2 µg/mL
same,MIC,"Lactobacillus strains; pH 6, Lactobacillus jensenii HM-105",> 32 µg/mL
same,MIC,"Lactobacillus strains; pH 6, Lactobacillus reuteri HM-102",> 32 µg/mL
same,MIC,"Lactobacillus strains; pH 6, Lactobacillus rhamnosus HM-106",> 32 µg/mL
same,MIC,"Lactobacillus strains; pH 6, Lactobacillus vaginalis HM-405",2 µg/mL
same,MIC,[1],0.125 µg/mL
same,MIC,"[1]; Clostridiales bacterium, Clostridiales bacterium HM-84, broth microdilution, brucella broth, read-out: MIC",≤ 0.031 µg/mL
same,MIC,"[1]; Clostridiales bacterium, Clostridiales bacterium HM-182, broth microdilution, brucella broth, read-out: MIC",0.25 µg/mL
same,MIC,"[1]; Eubacterium sp. HM-178, broth microdilution, brucella broth",0.125 µg/mL
same,MIC,"[1]; Lachnospiraceae sp. HM-7, broth microdilution, brucella broth, read-out: MIC",≤ 0.031 µg/mL
same,MIC,"[1]; Lachnospiraceae sp. HM-150, broth microdilution, brucella broth, read-out: MIC",0.25 µg/mL
same,MIC,"[1]; Lachnospiraceae sp. HM-153, broth microdilution, brucella broth",0.125 µg/mL
same,MIC,"[1]; Lachnospiraceae sp. HM-154, broth microdilution, brucella broth, read-out: MIC",0.5 µg/mL
same,MIC,"[1]; Lachnospiraceae sp. HM-161, broth microdilution, brucella broth, read-out: MIC",0.25 µg/mL
same,MIC,"[1]; Lachnospiraceae sp. HM-480, broth microdilution, brucella broth, read-out: MIC",0.062 µg/mL
same,MIC,"[1]; Lachnospiraceae sp. HM-558, broth microdilution, brucella broth, read-out: MIC",0.062 µg/mL
same,MIC,"[1]; Lachnospiraceae sp. HM-768, broth microdilution, brucella broth, read-out: MIC",≤ 0.031 µg/mL
same,MIC,"[1]; Lachnospiraceae sp. HM-868, broth microdilution, brucella broth, read-out: MIC",2 µg/mL
same,MIC,"[1]; Peptostreptococcaceae sp. HM-766, broth microdilution, brucella broth, read-out: MIC",1 µg/mL
same,susceptibility of Lachnospiraceae and related organisms (in words),[1]; most of the members of this family,susceptible
same,MIC,"C. difficile VPI10463; Clostridioides difficile, VPI10463",0.125 µg/mL
same,MIC,"C. difficile VPI10463; Clostridioides difficile, VPI10463, Expt. 1, fecal extract (human feces 20% w/v in BHI), C. difficile VPI10463",0.5 µg/mL
same,MIC,"C. difficile VPI10463; Clostridioides difficile, VPI10463, Expt. 2, −fecal extract, C. difficile VPI10463",0.062 µg/mL
same,MIC,"C. difficile VPI10463; Expt. 2, +fecal extract (human feces 20% w/v in BHI), C. difficile VPI10463",0.125 µg/mL
